These results are taken from ChEMBL document CHEMBL3880421, “Indazole compounds and pharmaceutical compositions for inhibiting protein kinases, and methods for their use” (2003).

The nature of experiment [1]: Antiproliferative activity against VEGF-stimulated HUVEC cells assessed as reduction in cell viability at 0.5 nM preincubated for 1 hr followed by addition of VEGF measured after 72 hrs by MTT assay. The class given is functional. Conditions: Homo sapiens.
A short description of experiment [2]: Antiproliferative activity against VEGF-stimulated HUVEC cells assessed as reduction in cell viability at 2 nM preincubated for 1 hr followed by addition of VEGF measured after 72 hrs by MTT assay. In kind it is functional. Conditions: Homo sapiens.

Structures are written as SMILES.

In the case of `O=C(NN1CCN(CCO)CC1)c1ccccc1Nc1ccc2c(/C=C/c3ccccn3)n[nH]c2c1`, the inhibition at 0.0005 µM in experiment [1] was determined as 25%. The inhibition at 0.002 µM in experiment [2] was determined as 25%.
For `CN1CCCC1CCNC(=O)c1ccccc1Nc1ccc2c(/C=C/c3ccccn3)n[nH]c2c1` (centres undefined), the inhibition at 0.0005 µM in experiment [1] is 30%. Besides, the inhibition at 0.002 µM in experiment [2] was 23%.
Regarding `C=CCONC(=O)c1ccccc1Nc1ccc2c(/C=C/c3ccccn3)n[nH]c2c1`, in experiment [1], the inhibition at 0.0005 µM fell in the range of 51 to 92%. Further, the inhibition at 0.002 µM in experiment [2] was in the range of 103 to 108%.
In the same order, the values of `O=C(Nc1nccs1)c1ccccc1Nc1ccc2c(/C=C/c3ccccn3)n[nH]c2c1` are 33% and 94%.
Take `O=C(NC1CCCC1)c1ccccc1Nc1ccc2c(/C=C/c3ccccn3)n[nH]c2c1`: in experiment [1], the inhibition at 0.0005 µM is 43%. Moreover, the inhibition at 0.002 µM in experiment [2] turned out to be 96%.
On to `CCCCCCC(C)NC(=O)c1ccccc1Nc1ccc2c(/C=C/c3ccccn3)n[nH]c2c1` (centres undefined), for which, in experiment [1], the inhibition at 0.0005 µM was found to be 35%. For the same compound, in experiment [2], the inhibition at 0.002 µM was determined as 63%.
In the case of `CNC(=O)c1ccccc1Nc1ccc2c(/C=C/c3ccccn3)n[nH]c2c1`, the inhibition at 0.0005 µM in experiment [1] was 8%. Moreover, in experiment [2], the inhibition at 0.002 µM amounted to 21%.
Regarding `O=C(NCCCN1CCCCCC1)c1ccccc1Nc1ccc2c(/C=C/c3ccccn3)n[nH]c2c1`, in experiment [1], the inhibition at 0.0005 µM worked out at 25%. Also, in experiment [2], the inhibition at 0.002 µM is -5%.
In the case of `CCN1CCC[C@H]1CNC(=O)c1ccccc1Nc1ccc2c(/C=C/c3ccccn3)n[nH]c2c1`, the inhibition at 0.0005 µM in experiment [1] was found to be 15%. Also, the inhibition at 0.002 µM in experiment [2] was determined as 23%.
With `O=C(NCS(=O)(=O)O)c1ccccc1Nc1ccc2c(/C=C/c3ccccn3)n[nH]c2c1`, the inhibition at 0.0005 µM in experiment [1] amounted to 2%. The inhibition at 0.002 µM in experiment [2] is -3%.
Turning to `O=C(NOCC(=O)N1CCOCC1)c1ccccc1Nc1ccc2c(/C=C/c3ccccn3)n[nH]c2c1`, the inhibition at 0.0005 µM in experiment [1] was 15%. Further, the inhibition at 0.002 µM in experiment [2] was -1%.
On to `CC(C)CNC(=O)c1ccccc1Nc1ccc2c(/C=C/c3ccccn3)n[nH]c2c1`, for which, in experiment [1], the inhibition at 0.0005 µM lay in the range of 4 to 31%. For the same compound, the inhibition at 0.002 µM in experiment [2] lay in the range of 29 to 36%.
On to `O=C(NNC(=O)c1ccccc1Nc1ccc2c(/C=C/c3ccccn3)n[nH]c2c1)c1cccs1`, for which, in experiment [1], the inhibition at 0.0005 µM was 65%. Further, the inhibition at 0.002 µM in experiment [2] stood at 90%.
Take `NC(=O)CCNC(=O)c1ccccc1Nc1ccc2c(/C=C/c3ccccn3)n[nH]c2c1`: the inhibition at 0.0005 µM in experiment [1] is 8%. Besides, in experiment [2], the inhibition at 0.002 µM was 18%.
Consider `O=C(Nc1nc2ccccc2[nH]1)c1ccccc1Nc1ccc2c(/C=C/c3ccccn3)n[nH]c2c1`, for which the inhibition at 0.0005 µM in experiment [1] was found to be 18%. Also, in experiment [2], the inhibition at 0.002 µM turned out to be 43%.
In the case of `O=C(NCCc1c[nH]cn1)c1ccccc1Nc1ccc2c(/C=C/c3ccccn3)n[nH]c2c1`, the inhibition at 0.0005 µM in experiment [1] came to 23%. Also, in experiment [2], the inhibition at 0.002 µM is -32%.
`O=C(NCC(F)(F)F)c1ccccc1Nc1ccc2c(/C=C/c3ccccn3)n[nH]c2c1`: in experiment [1], the inhibition at 0.0005 µM fell in the range of 34 to 53%. For the same compound, the inhibition at 0.002 µM in experiment [2] fell in the range of 61 to 95%.
As for `CCCCCCCCNC(=O)c1ccccc1Nc1ccc2c(/C=C/c3ccccn3)n[nH]c2c1`, the inhibition at 0.0005 µM in experiment [1] came to 26%. The inhibition at 0.002 µM in experiment [2] was found to be 16%.
Consider `O=C(NCCCN1CCCC1)c1ccccc1Nc1ccc2c(/C=C/c3ccccn3)n[nH]c2c1`, for which the inhibition at 0.0005 µM in experiment [1] stood at 20%. For the same compound, in experiment [2], the inhibition at 0.002 µM was determined as 2%.
In the same order, the values of `Cc1cc(C(=O)NNC(=O)c2ccccc2Nc2ccc3c(/C=C/c4ccccn4)n[nH]c3c2)[nH]n1` are 26% and 39%.
For the compound `CC(C)(C(=O)NNC(=O)c1ccccc1Nc1ccc2c(/C=C/c3ccccn3)n[nH]c2c1)n1cncn1`, in experiment [1], the inhibition at 0.0005 µM is 34%. For the same compound, the inhibition at 0.002 µM in experiment [2] was 90%.
As to `O=C(N[C@@H]1CC=CC[C@@H]1CO)c1ccccc1Nc1ccc2c(/C=C/c3ccccn3)n[nH]c2c1`, the inhibition at 0.0005 µM in experiment [1] worked out at 58%. Moreover, in experiment [2], the inhibition at 0.002 µM was 37%.
For the compound `CNNC(=O)c1ccccc1Nc1ccc2c(/C=C/c3ccccn3)n[nH]c2c1`, the inhibition at 0.0005 µM in experiment [1] worked out at 13%. In addition, the inhibition at 0.002 µM in experiment [2] came to 31%.
In the same order, the values of `O=C(NC1OCCO1)c1ccccc1Nc1ccc2c(/C=C/c3ccccn3)n[nH]c2c1` are 35% and 63%.
Taken in the same sequence, the figures for `CCCCN(CCCC)CCCNC(=O)c1ccccc1Nc1ccc2c(/C=C/c3ccccn3)n[nH]c2c1` were 32% and 10%.
In the same order, the values of `O=C(NOc1ccccc1)c1ccccc1Nc1ccc2c(/C=C/c3ccccn3)n[nH]c2c1` are 27% and 80%.
For the compound `CN(CCCNC(=O)c1ccccc1Nc1ccc2c(/C=C/c3ccccn3)n[nH]c2c1)c1ccccc1`, the inhibition at 0.0005 µM in experiment [1] was 18%. The inhibition at 0.002 µM in experiment [2] turned out to be 25%.
As to `CC(C)CCNC(=O)c1ccccc1Nc1ccc2c(/C=C/c3ccccn3)n[nH]c2c1`, in experiment [1], the inhibition at 0.0005 µM was in the range of 14 to 47%. The inhibition at 0.002 µM in experiment [2] lay within 47 to 55%.
Turning to `CN(NC(=O)c1ccccc1Nc1ccc2c(/C=C/c3ccccn3)n[nH]c2c1)C(N)=S`, in experiment [1], the inhibition at 0.0005 µM was found to be 12%. For the same compound, in experiment [2], the inhibition at 0.002 µM is 29%.
For `O=C(CNC(=O)c1ccccc1Nc1ccc2c(/C=C/c3ccccn3)n[nH]c2c1)NO`, the inhibition at 0.0005 µM in experiment [1] came out at 5%. Also, in experiment [2], the inhibition at 0.002 µM was 9%.
With `O=C(Nc1nnn[nH]1)c1ccccc1Nc1ccc2c(/C=C/c3ccccn3)n[nH]c2c1`, the inhibition at 0.0005 µM in experiment [1] is 21 to 39%. In experiment [2], the inhibition at 0.002 µM was 18 to 64%.
On to `O=C(NCCCn1ccnc1)c1ccccc1Nc1ccc2c(/C=C/c3ccccn3)n[nH]c2c1`, for which the inhibition at 0.0005 µM in experiment [1] was found to be 23%. Besides, the inhibition at 0.002 µM in experiment [2] was 23%.
In the case of `Cc1cc(NNC(=O)c2ccccc2Nc2ccc3c(/C=C/c4ccccn4)n[nH]c3c2)nc(C)n1`, the inhibition at 0.0005 µM in experiment [1] was found to be 32%. Further, the inhibition at 0.002 µM in experiment [2] was found to be 35%.
Taken in the same sequence, the figures for `CCC(C)NC(=O)c1ccccc1Nc1ccc2c(/C=C/c3ccccn3)n[nH]c2c1` (centres undefined) were 29% and 58%.
`COCC(C)NC(=O)c1ccccc1Nc1ccc2c(/C=C/c3ccccn3)n[nH]c2c1` (centres undefined): the inhibition at 0.0005 µM in experiment [1] was 18%. The inhibition at 0.002 µM in experiment [2] was determined as 32%.
Turning to `NC(=O)[C@H]1CCCC[C@H]1NC(=O)c1ccccc1Nc1ccc2c(/C=C/c3ccccn3)n[nH]c2c1`, the inhibition at 0.0005 µM in experiment [1] turned out to be 21%. The inhibition at 0.002 µM in experiment [2] is 39%.
Regarding `O=C(NC1CC1)c1ccccc1Nc1ccc2c(/C=C/c3ccccn3)n[nH]c2c1`, in experiment [1], the inhibition at 0.0005 µM is 59%. For the same compound, the inhibition at 0.002 µM in experiment [2] was determined as 97%.
`CC(C)NC(=O)c1ccccc1Nc1ccc2c(/C=C/c3ccccn3)n[nH]c2c1`: the inhibition at 0.0005 µM in experiment [1] was 22%. The inhibition at 0.002 µM in experiment [2] was 43%.
For the compound `CC1CCCCN1CCCNC(=O)c1ccccc1Nc1ccc2c(/C=C/c3ccccn3)n[nH]c2c1` (centres undefined), the inhibition at 0.0005 µM in experiment [1] stood at 25%. In experiment [2], the inhibition at 0.002 µM is 15%.
As to `C=CCNC(=O)c1ccccc1Nc1ccc2c(/C=C/c3ccccn3)n[nH]c2c1`, in experiment [1], the inhibition at 0.0005 µM turned out to be 30%. In experiment [2], the inhibition at 0.002 µM stood at 86%.
Consider `CC(CN(C)C)NC(=O)c1ccccc1Nc1ccc2c(/C=C/c3ccccn3)n[nH]c2c1` (centres undefined), for which the inhibition at 0.0005 µM in experiment [1] is 23%. Also, the inhibition at 0.002 µM in experiment [2] was determined as 17%.
As to `Cc1ccccc1CNC(=O)c1ccccc1Nc1ccc2c(/C=C/c3ccccn3)n[nH]c2c1`, in experiment [1], the inhibition at 0.0005 µM amounted to 24%. The inhibition at 0.002 µM in experiment [2] is 99%.
Regarding `O=C(O)CNC(=O)CCNC(=O)c1ccccc1Nc1ccc2c(/C=C/c3ccccn3)n[nH]c2c1`, the inhibition at 0.0005 µM in experiment [1] was determined as 49%. Also, in experiment [2], the inhibition at 0.002 µM was -9%.
In the case of `NS(=O)(=O)c1ccc(CNC(=O)c2ccccc2Nc2ccc3c(/C=C/c4ccccn4)n[nH]c3c2)cc1`, in experiment [1], the inhibition at 0.0005 µM was 1%. Also, the inhibition at 0.002 µM in experiment [2] was 13%.
Consider `NC(=O)[C@H](CO)NC(=O)c1ccccc1Nc1ccc2c(/C=C/c3ccccn3)n[nH]c2c1`, for which, in experiment [1], the inhibition at 0.0005 µM turned out to be 17%. Also, the inhibition at 0.002 µM in experiment [2] turned out to be 4%.
Take `O=C(NCCc1ccccc1)c1ccccc1Nc1ccc2c(/C=C/c3ccccn3)n[nH]c2c1`: the inhibition at 0.0005 µM in experiment [1] came out at 15%. In experiment [2], the inhibition at 0.002 µM was found to be 99%.
In the same order, the values of `Nc1nnc(NC(=O)c2ccccc2Nc2ccc3c(/C=C/c4ccccn4)n[nH]c3c2)[nH]1` are -6% and 41%.
In the same order, the values of `CN(C)NC(=O)c1ccccc1Nc1ccc2c(/C=C/c3ccccn3)n[nH]c2c1` are 31% and 20%.
In the same order, the values of `O=C(NCCO)c1ccccc1Nc1ccc2c(/C=C/c3ccccn3)n[nH]c2c1` are 18% and 24%.
As for `CCn1nccc1NC(=O)c1ccccc1Nc1ccc2c(/C=C/c3ccccn3)n[nH]c2c1`, in experiment [1], the inhibition at 0.0005 µM worked out at 26%. Moreover, in experiment [2], the inhibition at 0.002 µM was 2%.
`COCCNC(=O)c1ccccc1Nc1ccc2c(/C=C/c3ccccn3)n[nH]c2c1`: the inhibition at 0.0005 µM in experiment [1] came out at 21%. In experiment [2], the inhibition at 0.002 µM came to 60%.
Taken in the same sequence, the figures for `CC1(C)OCC(CNC(=O)c2ccccc2Nc2ccc3c(/C=C/c4ccccn4)n[nH]c3c2)O1` (centres undefined) were 28% and 69%.
Take `CC(C)[C@H](CO)NC(=O)c1ccccc1Nc1ccc2c(/C=C/c3ccccn3)n[nH]c2c1`: the inhibition at 0.0005 µM in experiment [1] is 47%. The inhibition at 0.002 µM in experiment [2] is -4%.
Take `N#CCNC(=O)c1ccccc1Nc1ccc2c(/C=C/c3ccccn3)n[nH]c2c1`: the inhibition at 0.0005 µM in experiment [1] was 18%. Besides, the inhibition at 0.002 µM in experiment [2] came to 40%.
On to `O=C(NN1CCCCC1)c1ccccc1Nc1ccc2c(/C=C/c3ccccn3)n[nH]c2c1`, for which the inhibition at 0.0005 µM in experiment [1] stood at 27%. For the same compound, the inhibition at 0.002 µM in experiment [2] worked out at 17%.
Taken in the same sequence, the figures for `O=C(Cc1ccccc1)NNC(=O)c1ccccc1Nc1ccc2c(/C=C/c3ccccn3)n[nH]c2c1` were 31% and 66%.
In the same order, the values of `CCCC(CO)NC(=O)c1ccccc1Nc1ccc2c(/C=C/c3ccccn3)n[nH]c2c1` (centres undefined) are 44% and 40%.
